Measurements published in patent publication US7026344B2, “Treating sickle cell disease” (priority 2000, dated 2006).
Where “and” joins values, the source holds several entries; their conditions need not be identical. Identical values can stand only once.

Columns and labels:
[1] = system: fetal hemoglobin production in primary erythroid progenitors from Hb SS patients; assay: Hemoglobin F determination in erythroid progenitors, Hb SS patients; format: cell-based, human; details: for fold increase in hemoglobin F: 0 versus 100 μM, Hb SS patients; for HbF Difference: 0 vs 100 μM, sickle cell patients
Protocol: BFU-E Colony Growth. Mononuclear cells were isolated from the peripheral blood of each patient studied by density gradient centrifugation using Histapaque-1077 (Sigma). Erythroid progenitors were obtained in methylcellulose culture. ZL was added on day 0 at 25, 50, 75, or 100 μM concentrations for 13–14 days at which time the number of BFU-E colonies were counted on an inverted microscope and harvested for hemoglobin determinations.
Hemoglobin F determination. The erythroid progenitors were collected, washed in PBS then lysed at room temperature in 200 μl of water. The supernatant was split into two tubes, one for total hemoglobin determination and one for hemoglobin F determination. In brief, IgG (10 μl), 1.2 N NaOH (7 μl) and saturated (NH4)2SO4 (70 μl) were added to the hemoglobin F sample. The denatured hemoglobin was pelleted and the supernatant containing hemoglobin F was mixed with 500 μl of tetramethyl benzidine and 500 μl of H2O2 at room temperature then quantitated on a spectrophotometer at 600 nm. The percentage of fetal hemoglobin to total hemoglobin was determined.
The capability of ZL to induce hemoglobin F in primary erythroid progenitors, grown from peripheral blood mononuclear cells (MNC) was analyzed. BFU-E colonies were grown in methylcellulose cultures supplemented with erthyopoietin and interleukin-3 and ZL at concentration from 0 to 100 μM. Three patients homozygous for hemoglobin S (Hb SS) were analyzed with triplicate experiments. The average BFU-E colony number was 123.2±18.6 without ZL compared to 10.6±2.0 at 100 μM concentrations, p<0.05 (Table 1). […] All pair-wise comparisons for BFU-E and hemoglobin F between 0μ and other concentrations (25, 50, 75 and 100 μM) were significant at p<0.05. The correlation coefficient between the number of BFU-E colonies or percent hemoglobin F and different levels of ZL is −0.90 and +0.79, respectively (p<0.05). […] (See Yang et al., BFU-E colony growth in response to hydroxyurea: correlation between in vitro and in vivo fetal hemoglobin induction. Am J Hematol. 1997; 56:252–258). […] HU either was more efficient in inhibiting BFU-E colony growth or alternatively the baseline number of colonies on an average was higher for the Hb SS patients in the HU cohort.

K562 cells = assay: K562 cell viability by trypan blue exclusion; format: cell-based, human; details: 75 μM and 100 μM
Protocol: Cell Culture. K562 cells were grown in suspension cultures in RPMI-1640 containing 10% fetal bovine serum, penicillin (100 U/ml) and streptomycin (0.1 mg/ml in a humidified incubator at 37° C. in a 5%CO2/95% air atmosphere. […] The K562 cells were induced for 72 hours then RNA isolated for further analysis. Cell viability was completed by 2% trypan blue exclusion at timnes 0 and 72 hours.

[2] = system: activated-PMN mediated SRBC retention/adherence in the isolated-perfused rat lung; assay: SRBC retention/adherence in isolated-perfused lung with PMA-activated PMNs; details: for SRBC retention/adherence: mean±SE
Protocol: Isolated perfused lung. Male Sprague-Dawley rats (275–350 g) were anesthetized with Nembutal sodium (25 mg ip), and lungs were removed for extracorporeal perfusion. A tracheostomy was performed that permitted ventilation with a Harvard rodent ventilator (model 683) at 55 breaths/min with a tidal volume of 2.5 ml and 2.0 cmH2O positive end-expiratory pressure. The inspired gas mixture as 95% air-5% CO2 (room air gas). A median stemotomy was performed, heparin sodium (100 IU) was injected in the right ventricle, and caminulas were placed in the pulmonary artery and left ventricle. Heart, lungs, and mediastinal structures were removed en bloc and placed into a humidified chamber. Lungs were perfused by a Gilson Minipuls 2 peristaltic pump at a constant flow of 0.03 ml·g body wt^−1·min^−1. Lungs were perfused with a physiological salt solution (PSS) containing bovine serum albumin (BSA, 66,000 mol.wt). The PSS-BSA perfusate contained (in mM) 119 NaCl, 4.7 KCI, 1.17 MgSO4, 22.5 NaHCO3, 1.18 KH2PO4, 3.2 CaCl2, 5.5 glucose, and 4 g/100 ml BSA. PSS-BSA (100 ml) was perfused through the lungs in a nonrecirculating fashion to remove residual blood cells and plasma. The perfusate was then changed to a PSS-BSA perfusate that contained RBCs from individuals homozygous for sickle cell anemia (Hb SS). The perfusate hematocrit was ˜10%. Pulmonary arterial pressure (Ppa) and pulmonary venous (Ppv) were continuously monitored with Cope pressure transducers (model 041-500-503) and recorded on a Grass polygraph recorder (model 7E). Zone 3 flow conditions (arterial>venous>alveolar pressures) were maintained throughout all experiments.
Blood collection. During steady-state, blood samples (˜40 ml) were obtained from normal (Hemoglobin A) human volunteers and from individuals with homozygous sickle cell anemia in the sickle cell clinics at the University of South Alabama. Samples were collected in syringes containing heparin and utilized within 48 hours of collection. Individuals having received blood transfusions within 6 wks were excluded from this study. Sickle cell anemia was documented by hemoglobin electrophoresis in each subject.
RBC isolation and Cr^51 labeling. Each whole blood sample was centrifuged at 4100 rpm for 10 min followed by the removal of the plasma and buffy coat. Packed RBCs were then mixed at a 1:3 dilution with normal saline and washed ×3. With each wash, the RBC suspension was centrifuged for 10 min at 3000 rpm followed by removal of the supernatant. Following the third wash, packed RBCs were resuspended in PBS (1 ml PBS/1 ml packed RBCs) and incubated with 100 μCi Cr^51 for 60 min in a shaker water bath at 37° C. Following incubation, the Cr^51 labeled RBCs were washed ×1 with normal saline and resuspended in PSS-BSA to obtain a hematocrit of ˜10%.
Neutrophil (PMN) isolations. Heparinized whole blood (20 ml) from individuals with homozygous sickle cell anemia was diluted 1:1 with normal saline. Dextran 500 was added to the 1:1 mix at ¼ the volume of the 1:1 mix. This was allowed to incubate for 45 min at 37° C. The supernatant (contains PMNs) was aspirated into a 50 ml centrifuge tube and underlayered with 10 ml histopague 1077. This was centrifuged at 1250 rpm for 30 min. The supernatant is aspirated and discarded leaving the PMN pellet. Sterile H2O, 3 ml, is added to the PMN pellet and agitated for 3 sec to lyse any residual RBCs. Phosphate buffered saline, 45 ml, is added immediately thereafter to stop the reaction. This is centrifuged at 1250 rpm for 10 min. The supernatant is aspirated and discarded. This process of RBC lysis followed by PBS is repeated until the PMN pellet is without visual evidence of RBC contamination. The PMN pellet is suspended in 1 ml of sterile Hank's balanced salt solution. A total PMN count is obtained using the Cell-DYN 900 Coulter Counter. PMN viability is 95–99% as assessed using trypan blue.
RBC Retention. […]

| SMILES | fold increase in hemoglobin F [1] [fold] | HbF Difference [1] [%] | HbF ([1]; zileuton 25 μM, individual Hb SS patients (No. 1-3)) | HbF ([1]; zileuton 25 μM, mean ± SEM of three Hb SS patients) [%] | HbF ([1]; zileuton 50 μM, individual Hb SS patients (No. 1-3)) | HbF ([1]; zileuton 50 μM, mean ± SEM of three Hb SS patients) [%] | HbF ([1]; zileuton 75 μM, individual Hb SS patients (No. 1-3)) | HbF ([1]; zileuton 75 μM, mean ± SEM of three Hb SS patients) [%] | HbF ([1]; zileuton 100 μM, individual Hb SS patients (No. 1-3)) | HbF ([1]; zileuton 100 μM, mean of three Hb SS patients) | HbF ([1]; zileuton 100 μM, mean of three Hb SS patients, listed as zileuton) [%] | decrease in K562 cell viability (K562 cells) [%] | decrease in SRBC retention/adherence ([2]; ZL 2.5 μM pretreated A-PMN vs SRBC+A-PMN control (ethanol diluent), 30 min perfusion) [%] | SRBC retention/adherence ([2]; HU 50 μM pretreated A-PMN) | SRBC retention/adherence ([2]; HU 100 μM pretreated A-PMN) | SRBC retention/adherence ([2]; HU 1000 μM pretreated A-PMN) | decrease in retained SRBCs ([2]; HU 1000 μM pretreated PMNs vs control (H2O diluent)) [%] | attenuation of activated-PMN mediated enhanced SRBC retention/adherence ([2]; HU 50 and 100 μM) |
| --- | --- | --- | --- | --- | --- | --- | --- | --- | --- | --- | --- | --- | --- | --- | --- | --- | --- | --- |
| CC(c1cc2ccccc2s1)N(O)C(N)=O (racemic) [ZL, (±)-1-(1-Benzo[b]thien-2-ylethyl)-1-hydroxyurea] | 4.8 | 12.6 ± 1.1 | 3% and 4% and 11% | 6.2 ± 1.4 | 6% and 7% and 14% | 11.9 ± 1.3 | 11% (2×) and 18% | 13.2 ± 1.4 | 13% and 14% and 21% | 15.9±1.4% and 15.9% | 15.9 ± 1.4 | 10 | ~42 |  |  |  |  |  |
| NC(=O)NO [HU, Hydroxyurea] | 3.8 | 14.4 ± 1.5 |  |  |  |  |  |  |  |  |  | 10 |  | 4.2±0.4 ×10^8 SRBC/gram of lung | 4.3±0.4 ×10^8 SRBC/gram of lung | 3.9±0.2 ×10^8 SRBC/gram of lung | ~25 | did not attenuate |
